Experimental data published in ChEMBL document CHEMBL5465560, “Selectivity Literature for EUbOPEN Chemogenomic Library” (2024).

What was measured:
[1] = biological target: Cyclin-dependent kinase 11A (Homo sapiens, UniProt Q9UQ88); assay: Selectivity interaction (Kinase panel (Invitrogen, enzymatic assay)) EUB0000162b CDK11A
[2] = biological target: Insulin-like growth factor 1 receptor (Homo sapiens, UniProt P08069); assay: Selectivity interaction (KinomeScan (DiscoverX)) EUB0000666a IGF1R; conditions: at 10 µM
[3] = biological target: Casein kinase II subunit alpha' (Homo sapiens) (UniProt P19784); assay: Selectivity interaction (Kinase panel (DSF assay)) EUB0001558a CSNK2A2
[4] = biological target: T1, Serine/threonine-protein kinase VRK1 (Homo sapiens) (UniProt Q99986); assay: Selectivity interaction (Kinase panel (DSF assay)) EUB0001559a VRK1
T1 sequence (whole entry): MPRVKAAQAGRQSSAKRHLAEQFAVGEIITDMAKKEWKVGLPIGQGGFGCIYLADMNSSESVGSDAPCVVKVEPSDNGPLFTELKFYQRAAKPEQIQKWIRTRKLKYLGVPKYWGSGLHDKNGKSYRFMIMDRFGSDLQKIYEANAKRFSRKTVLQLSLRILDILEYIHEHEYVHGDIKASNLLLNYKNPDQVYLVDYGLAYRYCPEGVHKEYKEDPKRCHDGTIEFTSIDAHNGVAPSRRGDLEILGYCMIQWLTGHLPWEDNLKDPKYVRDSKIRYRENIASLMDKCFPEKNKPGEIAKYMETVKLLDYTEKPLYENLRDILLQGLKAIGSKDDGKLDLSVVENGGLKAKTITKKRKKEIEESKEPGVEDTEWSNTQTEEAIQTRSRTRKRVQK

[5] = biological target: Nuclear body protein SP140 (Homo sapiens) (UniProt Q13342); assay: Selectivity interaction (Bromodomain panel (DSF asssay)) EUB0000270b SP140
[6] = biological target: Serine/threonine-protein kinase tousled-like 2 (Homo sapiens) (UniProt Q86UE8); assay: Selectivity interaction (ActivX KiNativ screen (kinase selectivity in THP-1 cell lysates)) EUB0000639a TLK2; assay type: subcellular; conditions: lysate, at 0.2 µM
Focal adhesion kinase 1 = Focal adhesion kinase 1 (Homo sapiens, UniProt Q05397); assay: Selectivity interaction (ActivX KiNativ screen (kinase selectivity in THP-1 cell lysates)) EUB0000639a PTK2; assay type: subcellular; conditions: lysate, at 0.2 µM
[7] = biological target: T2, Serine/threonine-protein kinase Sgk2 (Homo sapiens) (UniProt Q9HBY8); assay: Selectivity interaction (ActivX KiNativ screen (kinase selectivity in THP-1 cell lysates)) EUB0000639a SGK2; assay type: subcellular; conditions: lysate
T2 sequence (whole entry): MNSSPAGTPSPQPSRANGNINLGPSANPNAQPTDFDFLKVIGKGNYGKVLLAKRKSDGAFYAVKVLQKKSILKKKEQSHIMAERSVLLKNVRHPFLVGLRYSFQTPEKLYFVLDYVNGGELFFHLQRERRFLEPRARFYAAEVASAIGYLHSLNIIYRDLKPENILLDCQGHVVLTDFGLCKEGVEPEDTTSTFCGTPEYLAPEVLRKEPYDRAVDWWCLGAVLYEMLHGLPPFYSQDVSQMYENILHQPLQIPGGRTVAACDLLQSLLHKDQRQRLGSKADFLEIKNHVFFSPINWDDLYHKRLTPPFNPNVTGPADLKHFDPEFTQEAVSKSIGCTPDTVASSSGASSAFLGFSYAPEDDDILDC

[8] = biological target: Serine/threonine-protein kinase MRCK gamma (Homo sapiens) (UniProt Q6DT37); conditions: at 10 µM
[9] = biological target: Protein-tyrosine kinase 2-beta (Homo sapiens) (UniProt Q14289); assay: Selectivity interaction (KinomeScan (DiscoverX)) EUB0000595a PTK2B; conditions: at 10 µM
[10] = biological target: Phosphatidylinositol 4-phosphate 5-kinase type-1 alpha (Homo sapiens) (UniProt Q99755); assay: Selectivity interaction (KinomeScan (DiscoverX)) EUB0000045b PIP5K1A
[11] = biological target: Serine/threonine-protein kinase 38 (Homo sapiens) (UniProt Q15208); assay: Selectivity interaction (KinomeScan (DiscoverX)) EUB0000618a STK38; conditions: at 10 µM
[12] = biological target: Serine/threonine-protein kinase VRK2 (Homo sapiens) (UniProt Q86Y07); assay: Selectivity interaction (KinomeScan (DiscoverX)) EUB0000618a VRK2; conditions: at 10 µM
[13] = system: Mast/stem cell growth factor receptor Kit (Homo sapiens), P10721 [V559D,V654A]; conditions: at 10 µM
[14] = biological target: Ribosomal protein S6 kinase alpha-3 (Homo sapiens, UniProt P51812); assay: Selectivity interaction (ActivX KiNativ screen (ex vivo kinase selectivity in human PBMCs)) EUB0001619a RPS6KA3; assay type: cell-based; conditions: PBMC, at 1 µM
[15] = biological target: T3, Serine/threonine-protein kinase Nek2 (Homo sapiens) (UniProt P51955); assay: Selectivity interaction (KinomeScan (DiscoverX)) EUB0001619a NEK2; conditions: at 1 µM
T3 sequence (whole entry): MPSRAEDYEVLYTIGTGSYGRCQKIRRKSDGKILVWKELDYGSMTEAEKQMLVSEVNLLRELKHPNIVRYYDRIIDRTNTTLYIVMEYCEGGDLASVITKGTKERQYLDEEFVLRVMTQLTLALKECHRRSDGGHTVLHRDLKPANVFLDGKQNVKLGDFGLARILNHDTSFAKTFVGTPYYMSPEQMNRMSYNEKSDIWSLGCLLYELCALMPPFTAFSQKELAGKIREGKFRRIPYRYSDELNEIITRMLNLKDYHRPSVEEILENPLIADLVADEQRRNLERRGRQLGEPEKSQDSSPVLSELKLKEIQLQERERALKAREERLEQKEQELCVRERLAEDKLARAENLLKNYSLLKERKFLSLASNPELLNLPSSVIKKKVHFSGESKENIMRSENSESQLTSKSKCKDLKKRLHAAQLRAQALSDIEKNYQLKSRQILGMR

[16] = biological target: T4, Dual specificity mitogen-activated protein kinase kinase 1 (Homo sapiens, UniProt Q02750); assay: Selectivity interaction (ActivX KiNativ screen (ex vivo kinase selectivity in human PBMCs)) EUB0001619a MAP2K1; assay type: cell-based; conditions: PBMC, at 1 µM
[17] = biological target: Casein kinase II subunit alpha (Homo sapiens, UniProt P68400); assay: Selectivity interaction (Upstate Kinase Profiler service (Millipore)) EUB0000056c CSNK2A1; conditions: at 1 µM
[18] = biological target: Serine/threonine-protein kinase MRCK alpha (Homo sapiens) (UniProt Q5VT25); assay: Selectivity interaction (KinomeScan (DiscoverX)) EUB0000695a CDC42BPA; conditions: at 100 nM
[19] = biological target: Substance-P receptor (Homo sapiens) (UniProt P25103); assay: Selectivity interaction (Panel of kinases, GPCRs, ion channels and transporters (enzymatic assay)) EUB0000266bCl TACR1
[20] = biological target: T4, Dual specificity mitogen-activated protein kinase kinase 1; assay: Selectivity interaction (SelectScreen profiling (Invitrogen)) EUB0000607a MAP2K1; conditions: at 2 µM
[21] = biological target: CDK9/cyclin T1 (Homo sapiens) (UniProt O60563+P50750); assay: Selectivity interaction (Adapta Assay) EUB0001632a CDK9; assay type: protein-complex assay; conditions: at 10 µM

T4 sequence (Q02750 whole entry): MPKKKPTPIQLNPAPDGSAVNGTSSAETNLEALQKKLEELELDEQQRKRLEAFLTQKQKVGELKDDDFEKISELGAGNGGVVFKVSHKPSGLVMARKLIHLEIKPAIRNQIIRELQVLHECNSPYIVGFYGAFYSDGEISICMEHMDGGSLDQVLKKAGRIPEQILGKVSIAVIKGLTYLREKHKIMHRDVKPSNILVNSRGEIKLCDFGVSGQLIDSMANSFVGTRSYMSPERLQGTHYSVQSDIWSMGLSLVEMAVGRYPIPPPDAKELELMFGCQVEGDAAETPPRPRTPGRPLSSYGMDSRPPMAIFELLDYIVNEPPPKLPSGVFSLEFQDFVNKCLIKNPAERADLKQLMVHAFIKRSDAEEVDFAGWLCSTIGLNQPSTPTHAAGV
Chain of Phosphatidylinositol 4-phosphate 5-kinase type-1 alpha (Homo sapiens) (Q99755 whole entry): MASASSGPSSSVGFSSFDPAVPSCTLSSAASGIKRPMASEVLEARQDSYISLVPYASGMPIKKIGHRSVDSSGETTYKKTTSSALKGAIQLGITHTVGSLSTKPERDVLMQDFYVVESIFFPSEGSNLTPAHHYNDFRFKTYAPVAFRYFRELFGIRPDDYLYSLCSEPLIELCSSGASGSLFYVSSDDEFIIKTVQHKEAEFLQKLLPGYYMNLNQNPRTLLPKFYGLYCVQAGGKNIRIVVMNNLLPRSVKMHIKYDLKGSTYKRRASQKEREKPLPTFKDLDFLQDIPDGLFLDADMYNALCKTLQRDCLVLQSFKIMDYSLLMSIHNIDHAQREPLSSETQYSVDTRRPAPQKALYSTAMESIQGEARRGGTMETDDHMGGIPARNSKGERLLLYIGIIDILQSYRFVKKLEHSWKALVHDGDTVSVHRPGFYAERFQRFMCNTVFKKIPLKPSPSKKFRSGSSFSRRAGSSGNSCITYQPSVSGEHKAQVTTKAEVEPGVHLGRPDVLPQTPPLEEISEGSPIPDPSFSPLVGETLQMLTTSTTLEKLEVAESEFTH
Chain of Protein-tyrosine kinase 2-beta (Homo sapiens) (Q14289 whole entry, looked up): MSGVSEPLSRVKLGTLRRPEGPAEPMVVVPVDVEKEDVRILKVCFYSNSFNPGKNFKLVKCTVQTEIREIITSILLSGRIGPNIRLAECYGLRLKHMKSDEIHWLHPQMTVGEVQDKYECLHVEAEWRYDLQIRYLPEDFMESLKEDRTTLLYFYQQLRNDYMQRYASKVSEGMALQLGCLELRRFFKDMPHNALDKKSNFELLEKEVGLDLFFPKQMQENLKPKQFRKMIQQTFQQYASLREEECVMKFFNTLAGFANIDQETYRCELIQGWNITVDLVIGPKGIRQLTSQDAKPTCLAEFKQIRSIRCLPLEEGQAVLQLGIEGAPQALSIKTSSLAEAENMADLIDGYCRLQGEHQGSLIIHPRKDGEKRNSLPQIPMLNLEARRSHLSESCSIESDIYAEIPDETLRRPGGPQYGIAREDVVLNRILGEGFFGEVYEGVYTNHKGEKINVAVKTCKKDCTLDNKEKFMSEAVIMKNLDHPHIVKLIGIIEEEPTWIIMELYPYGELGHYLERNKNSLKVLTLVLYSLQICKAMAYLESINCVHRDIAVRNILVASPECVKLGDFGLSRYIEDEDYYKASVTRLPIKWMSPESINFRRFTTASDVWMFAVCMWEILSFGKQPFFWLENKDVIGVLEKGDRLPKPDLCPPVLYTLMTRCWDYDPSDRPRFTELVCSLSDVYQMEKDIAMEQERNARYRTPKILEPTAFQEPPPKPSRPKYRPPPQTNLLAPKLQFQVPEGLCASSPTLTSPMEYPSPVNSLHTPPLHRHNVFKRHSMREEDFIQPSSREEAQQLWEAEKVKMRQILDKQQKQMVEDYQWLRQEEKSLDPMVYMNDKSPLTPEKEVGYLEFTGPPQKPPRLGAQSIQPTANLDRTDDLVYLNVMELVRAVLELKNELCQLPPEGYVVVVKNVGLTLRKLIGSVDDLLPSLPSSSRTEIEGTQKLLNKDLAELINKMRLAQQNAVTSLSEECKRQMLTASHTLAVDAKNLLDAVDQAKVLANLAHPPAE
Chain of Serine/threonine-protein kinase tousled-like 2 (Homo sapiens) (Q86UE8 whole entry, looked up): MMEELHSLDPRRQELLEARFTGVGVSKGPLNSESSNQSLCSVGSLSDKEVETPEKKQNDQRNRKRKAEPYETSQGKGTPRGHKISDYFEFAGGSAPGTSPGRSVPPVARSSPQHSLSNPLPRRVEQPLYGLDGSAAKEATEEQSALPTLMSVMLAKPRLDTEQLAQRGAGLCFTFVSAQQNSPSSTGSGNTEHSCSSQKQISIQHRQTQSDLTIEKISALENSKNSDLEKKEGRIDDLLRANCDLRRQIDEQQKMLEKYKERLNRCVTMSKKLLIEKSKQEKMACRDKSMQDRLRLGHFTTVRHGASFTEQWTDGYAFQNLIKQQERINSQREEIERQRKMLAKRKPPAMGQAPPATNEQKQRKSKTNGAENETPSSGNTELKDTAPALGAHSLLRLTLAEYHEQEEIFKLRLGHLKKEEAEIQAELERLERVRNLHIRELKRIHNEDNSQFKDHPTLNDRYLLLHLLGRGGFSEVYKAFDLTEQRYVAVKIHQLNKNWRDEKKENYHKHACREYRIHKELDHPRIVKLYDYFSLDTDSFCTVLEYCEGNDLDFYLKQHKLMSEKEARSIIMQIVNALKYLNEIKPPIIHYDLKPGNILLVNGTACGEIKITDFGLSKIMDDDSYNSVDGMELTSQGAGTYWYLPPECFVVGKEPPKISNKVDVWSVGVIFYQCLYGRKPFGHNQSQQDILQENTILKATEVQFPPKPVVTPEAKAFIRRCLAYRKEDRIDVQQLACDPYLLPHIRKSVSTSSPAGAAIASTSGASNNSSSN
Chain of Serine/threonine-protein kinase MRCK alpha (Homo sapiens) (Q5VT25 whole entry): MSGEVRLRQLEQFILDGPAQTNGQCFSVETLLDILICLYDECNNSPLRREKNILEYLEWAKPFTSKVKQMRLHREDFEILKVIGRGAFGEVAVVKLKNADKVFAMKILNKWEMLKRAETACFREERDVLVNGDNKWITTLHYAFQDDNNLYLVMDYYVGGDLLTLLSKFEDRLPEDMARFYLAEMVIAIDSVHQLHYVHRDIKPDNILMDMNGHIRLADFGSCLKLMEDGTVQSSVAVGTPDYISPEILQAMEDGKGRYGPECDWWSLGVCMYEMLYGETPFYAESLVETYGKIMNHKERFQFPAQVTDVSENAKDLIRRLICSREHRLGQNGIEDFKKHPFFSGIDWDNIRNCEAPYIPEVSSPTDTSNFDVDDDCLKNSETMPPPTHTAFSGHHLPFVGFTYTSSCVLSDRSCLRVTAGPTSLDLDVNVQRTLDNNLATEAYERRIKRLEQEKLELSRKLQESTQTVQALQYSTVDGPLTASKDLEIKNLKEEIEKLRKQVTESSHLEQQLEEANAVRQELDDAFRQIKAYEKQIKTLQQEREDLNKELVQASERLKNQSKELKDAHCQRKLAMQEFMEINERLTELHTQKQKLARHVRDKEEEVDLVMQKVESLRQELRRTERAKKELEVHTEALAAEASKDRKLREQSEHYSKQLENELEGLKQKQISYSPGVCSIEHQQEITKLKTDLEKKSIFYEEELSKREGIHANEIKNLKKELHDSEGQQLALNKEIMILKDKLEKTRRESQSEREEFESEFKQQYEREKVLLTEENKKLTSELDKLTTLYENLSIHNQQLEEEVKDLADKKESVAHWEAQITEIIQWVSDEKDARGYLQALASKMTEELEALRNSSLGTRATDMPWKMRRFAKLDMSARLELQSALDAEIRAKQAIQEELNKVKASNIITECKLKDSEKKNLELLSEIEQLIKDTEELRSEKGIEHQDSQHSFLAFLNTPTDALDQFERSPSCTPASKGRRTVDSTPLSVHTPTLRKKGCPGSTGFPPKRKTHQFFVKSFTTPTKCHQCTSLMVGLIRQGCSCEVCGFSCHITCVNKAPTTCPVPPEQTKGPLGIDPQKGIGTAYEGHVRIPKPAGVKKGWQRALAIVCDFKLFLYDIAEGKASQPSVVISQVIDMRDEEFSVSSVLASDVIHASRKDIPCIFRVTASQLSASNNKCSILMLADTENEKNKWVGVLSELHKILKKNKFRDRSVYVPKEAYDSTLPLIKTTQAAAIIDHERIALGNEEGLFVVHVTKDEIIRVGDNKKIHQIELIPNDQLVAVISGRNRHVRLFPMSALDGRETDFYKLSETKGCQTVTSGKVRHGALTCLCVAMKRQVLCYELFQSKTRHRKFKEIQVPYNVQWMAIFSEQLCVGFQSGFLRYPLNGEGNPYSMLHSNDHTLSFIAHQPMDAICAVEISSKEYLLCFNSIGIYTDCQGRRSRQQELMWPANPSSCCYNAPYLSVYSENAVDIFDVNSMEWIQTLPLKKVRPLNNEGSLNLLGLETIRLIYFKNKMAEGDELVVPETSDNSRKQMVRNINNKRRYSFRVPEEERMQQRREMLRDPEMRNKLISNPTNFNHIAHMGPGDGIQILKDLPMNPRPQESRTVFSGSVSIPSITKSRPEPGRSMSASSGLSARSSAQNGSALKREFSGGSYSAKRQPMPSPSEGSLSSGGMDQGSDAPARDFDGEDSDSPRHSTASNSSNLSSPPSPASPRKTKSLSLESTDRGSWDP
Chain of Substance-P receptor (Homo sapiens) (P25103 whole entry): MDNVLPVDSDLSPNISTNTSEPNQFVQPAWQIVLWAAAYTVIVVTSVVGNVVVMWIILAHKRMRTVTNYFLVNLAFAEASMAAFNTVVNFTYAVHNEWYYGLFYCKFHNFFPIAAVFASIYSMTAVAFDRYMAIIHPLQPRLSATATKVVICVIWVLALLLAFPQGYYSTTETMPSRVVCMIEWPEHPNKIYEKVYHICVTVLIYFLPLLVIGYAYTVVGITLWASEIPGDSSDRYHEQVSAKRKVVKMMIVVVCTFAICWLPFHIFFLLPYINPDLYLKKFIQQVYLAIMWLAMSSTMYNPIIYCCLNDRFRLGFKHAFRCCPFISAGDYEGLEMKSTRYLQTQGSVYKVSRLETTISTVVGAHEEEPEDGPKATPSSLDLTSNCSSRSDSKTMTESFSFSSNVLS

CN(C)C(=O)Cn1cc(-c2ccc(-c3cncc4ccccc34)cc2)cn1
IC50 [1]: 1.7 nM

O=C(NOC[C@H](O)CO)c1ccc(F)c(F)c1Nc1ccc(I)cc1F
% of control [2]: 87%

CC(C)(O)[C@H](F)CN1Cc2cc(NC(=O)c3cnn4cccnc34)c(N3CCOCC3)cc2C1=O
dTM [3]: 0.1 K

CN(C(=O)c1cnn2cccnc12)c1cc2c(cc1N1CCOCC1)C(=O)N(C[C@@H](F)C(C)(C)O)C2
dTM [4]: 0.2 K

Cc1cc(CN)cc(C)c1-c1ncn(C)c1-c1cncn1C
dTM [5]: -1.11 K

CC[C@@H]1[C@H](F)C(=O)N[C@@H]1COc1nccc2cc(C(N)=O)c(OC)cc12 [ZIMLOVISERTIB]
% of inhibition [6]: 16.8% | % of inhibition (Focal adhesion kinase 1): 5.5% | % of inhibition ([7]; at 0.01 µM): -1% | % of inhibition ([7]; at 0.04 µM): 3.1% | % of inhibition ([7]; at 0.2 µM): -5.7% | % of inhibition ([7]; at 1 µM): -1% | % of inhibition ([7]; at 5 µM): -1.4%

COCC(=O)NC/C=C/c1ccc2ncnc(Nc3ccc(Oc4ccc(C)nc4)c(C)c3)c2c1 [CP-724714]
% of control [8]: 90% | % of control [9]: 80%

C=CC(=O)Nc1cc(-n2c(=O)ccc3cnc4ccc(-c5ccc(NS(C)(=O)=O)cc5)cc4c32)ccc1C
% of control ([10]; at 1 µM): 100% | % of control ([10]; at 10 µM): 54%

O[C@H]1CC[C@H](Nc2ncc3nc(Nc4c(F)cc(F)cc4F)n([C@H]4CCOC4)c3n2)CC1
% of control [11]: 100% | % of control [12]: 100%

Cc1cc([C@@H](C)Nc2ccccc2C(=O)O)c2nc(N3CCOCC3)cc(=O)n2c1 [AZD-6482]
% of control [13]: 96%

N#Cc1cccc(-c2c[nH]c3ncnc(N4CCOCC4)c23)c1
% of inhibition [14]: 6% | % of control [15]: 100% | % of inhibition [16]: 0%

Cc1ccc(-c2ccc3c(ccc4sc5c(c43)NC[C@@H](C)NC5=O)n2)cn1
% of inhibition [17]: 15%

Cc1cc(F)c(C(=O)Nc2cccc(-c3nncn3C(C)C)n2)cc1-n1cnc(C2CC2)c1
% of control [18]: 100%

CCn1c(-c2nc3cc(C(=O)N4CCCC(N)C4)ccc3n2C)cc2ccccc21 (configuration not stated)
pXC50 [19]: < 4.4 M

CNC(=O)Nc1ccc(-c2nc(N3CC4CCC(C3)O4)c3cnn(C4CCC5(CC4)OCCO5)c3n2)cc1
% of inhibition [20]: 3%

Cn1cc(-n2cnc3c(NCc4nc5cc(Cl)c(Cl)cc5[nH]4)nc(N4CCOCC4)nc32)cn1
% of inhibition [21]: 63.9%
